Test: xn = mol fraction of the nth substance listed
Conditions: 101 kPa

F[B-](F)(F)F.[Li+] + CCCC[n+]1ccn(C)c1.[I-]
electrical conductivity [S/m]
Conditions	298.15 K	303.15 K	308.15 K	313.15 K	318.15 K	323.15 K
x1 = 0.1	0.0385	0.0432	–	0.0519	0.0577	0.0647
x1 = 0.2	–	0.0477	0.0515	0.0584	0.0704	–
x1 = 0.3	0.042	0.0488	0.0505	0.0512	0.0597	0.088
x1 = 0.4	0.035	0.0392	0.0461	0.0477	0.0513	0.0554
x1 = 0.5	0.0312	0.0373	0.0425	0.0463	0.0501	0.0549

CCCC[n+]1ccn(C)c1.[I-] + [Li+].[B-](F)(F)(F)F
x2 = 0
Conditions	electrical conductivity [S/m]
298.15 K	0.0234
303.15 K	0.0262
313.15 K	0.0308
318.15 K	0.0326
323.15 K	0.0345

Source: a compilation of properties of binary mixtures (doi:10.1007/s11814-009-0129-3)
